Like-named read-outs stand apart in the source and are kept apart here.
How the values were obtained:
human LTA4 hydrolase = target: T1, human LTA4 hydrolase (Homo sapiens, UniProt P09960); experiment: LTA4H Enzyme assay (cleavage of Arg-AMC, fluorescence); assay type: biochemical
T1 sequence (P09960 1-611): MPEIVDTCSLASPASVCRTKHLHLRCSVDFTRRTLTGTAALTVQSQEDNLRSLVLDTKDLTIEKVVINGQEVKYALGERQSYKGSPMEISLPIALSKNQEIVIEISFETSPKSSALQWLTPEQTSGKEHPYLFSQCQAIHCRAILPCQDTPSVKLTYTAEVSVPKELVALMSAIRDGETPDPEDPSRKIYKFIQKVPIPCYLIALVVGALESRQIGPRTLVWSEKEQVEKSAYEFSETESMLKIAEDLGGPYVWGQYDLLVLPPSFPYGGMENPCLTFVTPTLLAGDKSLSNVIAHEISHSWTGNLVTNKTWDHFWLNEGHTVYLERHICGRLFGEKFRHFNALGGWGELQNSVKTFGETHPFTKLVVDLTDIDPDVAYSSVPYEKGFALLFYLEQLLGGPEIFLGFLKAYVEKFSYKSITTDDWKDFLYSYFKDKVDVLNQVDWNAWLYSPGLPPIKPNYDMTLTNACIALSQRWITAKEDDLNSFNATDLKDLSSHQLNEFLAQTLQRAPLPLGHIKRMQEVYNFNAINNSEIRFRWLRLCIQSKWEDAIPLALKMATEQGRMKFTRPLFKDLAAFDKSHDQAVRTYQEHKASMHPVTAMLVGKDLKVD
In short: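 Peptidase activity of human LTA4H (1 nM final) on Arg-AMC (50 μM final), with compound, 1 h at room temperature. Buffer: 50 mM Tris-HCl pH 7.5, 100 mM KCl, 0.5% BSA.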

[1] = tested on: synthesis of LTB4 in human whole blood; experiment: human whole blood (HWB) assay, LTB4 production inhibition after calcimycin stimulation; assay type: cell-based; conditions: heparinized human whole blood, calcimycin 20 μM, plasma LTB4 by HTRF
In short: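 Heparinized human whole blood preincubated with compound 15 min at 37 °C, then stimulated with 20 μM (final) calcimycin for 30 min at 37 °C. Plasma LTB4 measured by antibody-based HTRF; IC50 reported.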

[2] = LTA4H Enzyme 1 nM, Arg-AMC substrate 50 μM, room temperature 1 h, fluorescence, read-out: IC50 values of LTA4H Enzyme assay

| IC50 (human LTA4 hydrolase; [2]) [µM] | IC50 [1] [µM] | SMILES | IC50 (human LTA4 hydrolase) [µM] |
| --- | --- | --- | --- |
| 0.00036 | 0.54 | NC(=O)NCC1CCN(Cc2ccc([C@H]3COc4cccnc4O3)cc2)CC1 [Example 283, {1-[(S)-4-(2,3-Dihydro-[1,4]dioxino[2,3-b]pyridin-3-yl)-benzyl]-piperidin-4-ylmethyl}-urea] | – |
| 0.00061 | 0.346 | CN(Cc1ccc([C@H]2COc3ccccc3O2)cc1)C1CCCCC1 [Example 67, N-{4-[(2S)-2,3-dihydro-1,4-benzodioxin-2-yl]benzyl}-N-methylcyclohexanamine] | – |
| 0.00082 | 0.31 | O=C1NCCCC12CCN(Cc1ccc([C@H]3COc4ccccc4O3)cc1)CC2 [Example 116, 9-{4-[(2S)-2,3-dihydro-1,4-benzodioxin-2-yl]benzyl}-2,9-diazaspiro[5.5]undecan-1-one] | – |
| 0.00047 | 0.095 | O=C(O)CCC1CCN(Cc2ccc([C@H]3COc4ccccc4O3)cc2)CC1 [Example 134, 3-(1-{4-[(2S)-2,3-dihydro-1,4-benzodioxin-2-yl]benzyl}piperidin-4-yl)propionic acid] | – |
| 0.00038 | 0.033 | CCN(C)Cc1ccc([C@H]2COc3cccnc3O2)cc1 [Example 140, N-{4-[(3S)-2,3-dihydro[1,4]dioxino[2,3-b]pyridin-3-yl]benzyl}-N-methylethanamine] | – |
| 0.00014 | 0.095 | O=C(O)c1ccc(CC2CCN(Cc3ccc([C@H]4COc5cccnc5O4)cc3)CC2)cc1 [Example 234, 4-[(1-{4-[(3S)-2,3-dihydro[1,4]dioxino[2,3-b]pyridin-3-yl]benzyl}piperidin-4-yl)methyl]benzoic acid] | – |
| 0.00016 | 0.15 | O=C(O)C1CCC(C2CCN(Cc3ccc([C@H]4COc5cccnc5O4)cc3)CC2)CC1 (stereo partly drawn) [Example 265, 4-{1-[(S)-4-(2,3-Dihydro-[1,4]dioxino[2,3-b]pyridin-3-yl)-benzyl]-piperidin-4-yl}-cyclohexanecarboxylic acid] | – |
| 0.00035 | 0.16 | CC(=O)NC1CCN(Cc2ccc([C@H]3COc4ccccc4O3)cc2)CC1 [Example 178, N-(1-{4-[(2S)-2,3-dihydro-1,4-benzodioxin-2-yl]benzyl}piperidin-4-yl)acetamide] | – |

| SMILES | IC50 (human LTA4 hydrolase; [2]) [µM] | IC50 [1] [µM] | IC50 (human LTA4 hydrolase) [µM] |
| --- | --- | --- | --- |
| NC(=O)N[C@H]1C[C@H]2CC[C@@H](C1)N2Cc1ccc([C@H]2COc3cccnc3O2)cc1 [Example 259, {(endo)-8-[(S)-4-(2,3-Dihydro-[1,4]dioxino[2,3-b]pyridin-3-yl)-benzyl]-8-aza-bicyclo[3.2.1]oct-3-yl}-urea] | – | 0.79 | 0.0003 |
| O=C1OC[C@@H]2CN(Cc3ccc([C@H]4COc5cccnc5O4)cc3)CCN12 [Example 296, (S)-7-[(S)-4-(2,3-Dihydro-[1,4]dioxino[2,3-b]pyridin-3-yl)-benzyl]-hexahydro-oxazolo[3,4-a]pyrazin-3-one] | 0.00032 | 0.09 | – |

Reference: patent US8946203B2, “Benzodioxane inhibitors of leukotriene production” (Boehringer Ingelheim International GmbH, priority 2012, dated 2015)
